Legend:
Type in all cases: in vivo
[1] = system: Abutilon theophrasti (ABUTH); assay: Post-emergence test, glasshouse; conditions: 250 g/ha
Experimental: (§1) Seeds of a variety of test species are sown in standard soil in pots Amaranthus retoflexus (AMARE), Abutilon theophrasti (ABUTH), Setaria faberi (SETFA), Echinochloa crus-galli (ECHCG), Ipomoea hederacea (IPOHE)). After cultivation for one day (pre-emergence) or after 8 days cultivation (post-emergence) under controlled conditions in a glasshouse (at 24/16° C., day/night; 14 hours light; 65% humidity), the plants are sprayed with an aqueous spray solution derived from the formulation of the technical active ingredient in acetone/water (50:50) solution containing 0.5% Tween 20 (polyoxyethelyene sorbitan monolaurate, CAS RN 9005-64-5). Compounds are applied at 250 g/ha unless otherwise stated. The test plants are then grown in a glasshouse under controlled conditions in a glasshouse (at 24/16° C., day/night; 14 hours light; 65% humidity) and watered twice daily. After 13 days for pre and post-emergence, the test is evaluated for the percentage damage caused to the plant. The biological activities are shown in the following table on a five-point scale (5=81-100%; 4=61-80%; 3=41-60%; 2=21-40%; 1=0-20%).

[2] = system: Amaranthus retoflexus (AMARE); assay: Post-emergence test, glasshouse; conditions: 250 g/ha
Experimental: as §1

[3] = system: Echinochloa crus-galli (ECHCG); assay: Post-emergence test, glasshouse; conditions: 250 g/ha
Experimental: as §1

[4] = system: Ipomoea hederacea (IPOHE); assay: Post-emergence test, glasshouse; conditions: 250 g/ha
Experimental: as §1

Setaria faberi (SETFA) [5] = assay: Post-emergence test, glasshouse; conditions: 250 g/ha
Experimental: as §1

[6] = system: Abutilon theophrasti (ABUTH); assay: Pre-emergence test, glasshouse; conditions: 250 g/ha; for percentage damage caused to the plant, ABUTH: evaluated after 13 days, Table B2; for percentage damage caused to the plant, LABUTH: comparative test
Experimental: as §1

[7] = system: Amaranthus retoflexus (AMARE); assay: Pre-emergence test, glasshouse; conditions: 250 g/ha
Experimental: as §1

[8] = system: Echinochloa crus-galli (ECHCG); assay: Pre-emergence test, glasshouse; conditions: 250 g/ha
Experimental: as §1

[9] = system: Ipomoea hederacea (IPOHE); assay: Pre-emergence test, glasshouse; conditions: 250 g/ha
Experimental: as §1

Setaria faberi (SETFA) [10] = assay: Pre-emergence test, glasshouse; conditions: 250 g/ha
Experimental: as §1

[11] = evaluated after 13 days, Table B1
[12] = evaluated after 13 days, Table B2

Row | SMILES | percentage damage caused to the plant, ABUTH [1, 11] | percentage damage caused to the plant, AMARE [2, 11] | percentage damage caused to the plant, ECHCG [3, 11] | percentage damage caused to the plant, IPOHE [4, 11] | percentage damage caused to the plant, SETFA (Setaria faberi (SETFA) [5]; [11]) | percentage damage caused to the plant, ABUTH [6] | percentage damage caused to the plant, AMARE [7, 12] | percentage damage caused to the plant, ECHCG [8, 12] | percentage damage caused to the plant, IPOHE [9, 12] | percentage damage caused to the plant, SETFA (Setaria faberi (SETFA) [10]; [12]) | percentage damage caused to the plant, ABUTH ([1]; comparative test) | percentage damage caused to the plant, AMARE ([2]; comparative test) | percentage damage caused to the plant, ECHCG ([3]; comparative test) | percentage damage caused to the plant, IPOHE ([4]; comparative test) | percentage damage caused to the plant, SETFA (Setaria faberi (SETFA) [5]; comparative test) | percentage damage caused to the plant, LABUTH [6] | percentage damage caused to the plant, ECHCG ([8]; comparative test) | percentage damage caused to the plant, IPOHE ([9]; comparative test) | percentage damage caused to the plant, SETFA (Setaria faberi (SETFA) [10]; comparative test) | percentage damage caused to the plant, AMARE ([7]; comparative test)
1 | Cc1ccc(-n2nc(C(F)(F)F)cc2Oc2ncc(Cl)cn2)nn1 [Compound 1.012] | 1 (1=0-20%) | 2 (2=21-40%) | 1 (1=0-20%) | 1 (1=0-20%) | 1 (1=0-20%) | 1 (1=0-20%) | 3 (3=41-60%) | 1 (1=0-20%) | 1 (1=0-20%) | 1 (1=0-20%) |  |  |  |  |  |  |  |  |  | 
2 | FC(F)(F)c1cccc(-n2nc(C(F)(F)F)cc2Oc2ncc(Cl)cn2)c1 [Compound 1.003] | 1 (1=0-20%) | 5 (5=81-100%) | 1 (1=0-20%) | 2 (2=21-40%) | 3 (3=41-60%) | 1 (1=0-20%) | 5 (5=81-100%) | 2 (2=21-40%) | 1 (1=0-20%) | 5 (5=81-100%) |  |  |  |  |  |  |  |  |  | 
3 | FC(F)c1cc(Oc2ncc(Cl)cn2)n(-c2ccc(C(F)(F)F)cc2)n1 [Compound 1.005] | 3 (3=41-60%) | 5 (5=81-100%) | 1 (1=0-20%) | 2 (2=21-40%) | 2 (2=21-40%) | 1 (1=0-20%) | 4 (4=61-80%) | 1 (1=0-20%) | 1 (1=0-20%) | 2 (2=21-40%) |  |  |  |  |  |  |  |  |  | 
4 | Cc1cc(Oc2ncc(Cl)cn2)n(-c2ccc(C(F)(F)F)cc2)n1 [Compound C1, reference compound] |  |  |  |  |  |  |  |  |  |  | 2 (2=21-40%) | 4 (4=61-80%) | 1 (1=0-20%) | 1 (1=0-20%) | 2 (2=21-40%) | 1 (1=0-20%) | 1 (1=0-20%) | 1 (1=0-20%) | 2 (2=21-40%) | 
5 | FC(F)(F)c1ccc(-n2nc(C(F)(F)F)cc2Oc2ncc(Cl)cn2)cc1 [Compound 1.001, 5-chloro-2-[5-(trifluoromethyl)-2-[4-(trifluoromethyl)phenyl]pyrazol-3-yl]oxy-pyrimidine] | 5 (5=81-100%) | 5 (5=81-100%) | 5 (5=81-100%) |  | 5 (5=81-100%) | 4 (4=61-80%) | 5 (5=81-100%) | 5 (5=81-100%) | 5 (5=81-100%) | 5 (5=81-100%) | 5 (5=81-100%) | 5 (5=81-100%) | 5 (5=81-100%) |  | 5 (5=81-100%) | 4 (4=61-80%) | 5 (5=81-100%) | 5 (5=81-100%) | 5 (5=81-100%) | 5 (5=81-100%)

From US12522588B2, “Herbicidal compounds” (SYNGENTA CROP PROTECTION AG, priority 2020, dated 2026)
